80 compounds from the METLIN SMRT retention time set (Domingo-Almenara et al. 2019) can be followed below.

This series in a line: gradient 5% acetonitrile 3 min, to 50% in 2 min, to 85% in 15 min, held 3 min, 100 µL/min. Conditions: column: Zorbax Extend-C18 2.1 x 50 mm; eluents: water / acetonitrile, 0.1% formic acid. The essentials:
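Mixtures of ~100 pure standards were chromatographed on a Zorbax Extend-C18 column (2.1 × 50 mm, 1.8 μm) at 100 μL/min using water and acetonitrile, each with 0.1% formic acid. Detection used a quadrupole time-of-flight mass spectrometer in positive and negative ionization mode, and data collection spanned 3 months. Retention time was obtained from adduct peaks picked computationally and each checked manually.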
For `O=C(c1cc(F)ccc1F)N1CCC(OCC2CC2)C1` (stereo not given), the RP-LC retention time amounted to 772 s.
The result for `O=C(NC1CCN(c2cc(-c3ccc(F)cc3)[nH]n2)C1)c1ccc(F)cc1F` (stereo not given) reads 736 s; that for `COC(=O)[C@H](CCSC)NC(=O)c1cccc(-n2cnnn2)c1`, 707 s; that for `O=C(c1ccco1)N1CCN(S(=O)(=O)c2cc3c4c(c2)CCC(=O)N4CCC3)CC1`, 690 s.
`CCC(C)NC(=O)C1CCN(S(=O)(=O)c2cc(C(=O)N3CCCC3)n(C)c2)CC1` (stereo not given): the RP-LC retention time was 660 s.
With `CCn1cc(SCC(=O)NCc2ccc3c(c2)OCO3)c2ccccc21`, the RP-LC retention time turned out to be 854 s.
Turning to `CCCN(Cc1ccc(OC)cc1)Cc1cc(=O)n2ccc(C)cc2n1`, the RP-LC retention time stood at 628 s.
The result for `O=C(Nc1ccc2c(c1)OCO2)N1CCC(N2CCN(Cc3ccc(F)cc3)C2=O)CC1` reads 788 s; that for `CCOC(=O)c1noc2ncnc(Nc3ccc(F)cc3F)c12`, 799 s.
To `Cc1c(S(=O)(=O)Nc2ccccc2)c(C)n(C)c1-c1nnc(C2CCC2)o1` belongs 870 s; to `Cc1ccc(-c2coc(-c3ccc(NS(=O)(=O)c4ccc(Cl)s4)cc3)n2)c(C)c1`, 1350 s.
For `NC1=NCC2c3ccccc3Cc3ccccc3N12` (stereo not given), the RP-LC retention time was 707 s.
For the compound `CC1CCN(C(=O)CN2C(=O)C3CCCCN3c3ccc(C(=O)N4CCCC4)cc32)CC1` (stereo not given), the RP-LC retention time came to 815 s.
On to `CC(C)Oc1ccc(-c2noc(Cn3ncn4nc(-c5ccc(F)cc5)cc4c3=O)n2)cc1`, for which the RP-LC retention time is 1210 s.
In turn, `COc1ccc(N2C(=O)CC(N3CCC(C(N)=O)CC3)C2=O)c(OC)c1` (stereo not given) displayed an RP-LC retention time of 578 s.
Compound `C=CCN1CCN(c2ccc3nnc(CCc4nc(-c5ccc(F)cc5)no4)n3n2)CC1` gave an RP-LC retention time of 622 s.
`Cc1ccc(-c2cc(C(=O)NCCCn3ccnc3)c3ccccc3n2)s1` returned an RP-LC retention time of 684 s.
The compound `Cn1cc2nc(SCc3cc(F)cc(F)c3)n(Cc3ccc(F)cc3)c(=O)c2n1` yielded an RP-LC retention time of 1070 s.
`COc1cc(NC(=O)Cn2c(C)nc3c(sc4nc(-c5ccccc5)ccc43)c2=O)cc(OC)c1` had an RP-LC retention time of 1060 s.
Compound `COc1ccc(OC)c(-c2ccc(=O)n(Cc3ccccn3)n2)c1` had an RP-LC retention time of 622 s.
`Cc1nn(-c2cc(N3CCCC3)ncn2)c(C)c1CCC(=O)Nc1ccc(F)cc1Cl`: the RP-LC retention time was 791 s.
The result for `CCCOc1nc2ccccc2nc1N1CCCC(C(=O)Nc2ccccc2)C1` (stereo not given) reads 1250 s.
The result for `C[C@@H]1CN(C(=O)Cc2cccnc2)C[C@H]1c1nc(-c2ccncc2)no1` reads 568 s.
Compound `Cc1ccccc1CNC(=O)CN1C(=O)CSc2cccn2-c2ccccc21` showed an RP-LC retention time of 916 s.
In turn, `O=S(=O)(c1cccc(-c2nc(-c3ccccc3)no2)c1)N1CCCC1` showed an RP-LC retention time of 1130 s.
To `Cc1c(Cl)cccc1NC(=O)CCOc1ccccc1` belongs 888 s.
Regarding `CCC1CN(C(=O)N2CCC(C(=O)NCCCN3CCN(C)CC3)CC2)c2cc(C)ccc2O1` (stereo not given), the RP-LC retention time was found to be 617 s.
Consider `COC(=O)c1ccc(NC(=O)COc2cc(C)nc(N3CCCC3)n2)cc1`, for which the RP-LC retention time worked out at 638 s.
Take `COC(=O)c1ccc(CSc2nnc(N3CCN(c4ccc(F)cc4)CC3)s2)o1`: the RP-LC retention time was found to be 927 s.
In the case of `CC(=O)c1cccc(NC(=O)Cn2c(-c3ccc(F)cc3)nc(C)cc2=O)c1`, the RP-LC retention time was found to be 963 s.
With `CN(C(=O)Cn1cnc2c(-c3ccccc3)csc2c1=O)c1ccc(F)cc1`, the RP-LC retention time amounted to 938 s.
Compound `N#CCNC(=O)C1CC(=O)N(CCc2c[nH]c3ccc(F)cc23)C1` (stereo not given) registered an RP-LC retention time of 661 s.
`COc1ccc(C2(C(=O)N3C[C@@H](CO)[C@H](c4nc(C)no4)C3)CC2)cc1` had an RP-LC retention time of 665 s.
The result for `O=C(Nc1nc(-c2cccs2)cs1)c1ccc2ncsc2c1` reads 874 s; that for `CCC(C)NC(=O)N1CCN(c2cc(-c3cccc(OC)c3)ncn2)CC1` (stereo not given), 634 s.
Regarding `CCCn1cc(CCNC(=O)c2ccc(C)c(F)c2)c2cccnc21`, the RP-LC retention time worked out at 815 s.
In the case of `Cc1nn(-c2ccccc2)c(C)c1S(=O)(=O)N1CCC(C(=O)NCCc2cccs2)CC1`, the RP-LC retention time worked out at 881 s.
The result for `Cn1nccc1-c1cccc(-c2noc(C3(c4ccccc4)CC3)n2)c1` reads 1150 s; that for `C#CCSc1nc2ccccc2c2nc(-c3cccnc3)nn12`, 998 s.
The result for `CN(Cc1ccsc1)C(=O)NC1CCCC1` reads 792 s; that for `COc1ccc(Cl)cc1S(=O)(=O)Nc1cccn2c(C3CCC3)nnc12`, 849 s.
`Cc1noc(C)c1S(=O)(=O)N1CCC(C(C)C(=O)N2CCN(C3CCCCC3)CC2)CC1` (stereo not given) returned an RP-LC retention time of 654 s.
To `CCC(c1cccs1)N1C(=O)[C@H]2CN(S(=O)(=O)c3ccc(C(C)C)cc3)C[C@H]2C1=O` (stereo not given in full) belongs 1140 s.
As to `O=C(NCCN1CCc2ccccc2C1)C1CCCN(c2ncnc3c2nc2n3CCCCC2)C1` (stereo not given), the RP-LC retention time was determined as 622 s.
Consider `CCc1ccc(S(=O)(=O)N2CCC(n3cnnc3CC)CC2)cc1`, for which the RP-LC retention time stood at 746 s.
`Cn1nccc1-c1cccc(-c2noc(Cc3ccc(Cl)cc3)n2)c1` showed an RP-LC retention time of 1130 s.
`Cn1cccc1CN(C(=O)COc1ccc(Cl)cc1Cl)C1CC1` came in with an RP-LC retention time of 1040 s.
`CCn1cc(S(=O)(=O)N2CCCC2c2nncn2Cc2ccncc2)cn1` (stereo not given): the RP-LC retention time came to 553 s.
To `CCn1cnc2ccc(-c3noc(-c4ccoc4)n3)cc21` belongs 683 s; to `O=C(Cc1cccs1)NC1CCCN(c2cc(-c3ccccc3)[nH]n2)C1` (stereo not given), 758 s; to `COCCN1C(=O)c2ccccc2C(C(=O)Nc2ccc3c(c2)OCO3)C12CCCC2` (stereo not given), 816 s.
The compound `CCC(C)CNCC(=O)N1CCc2sccc2C1COc1cccc(C)c1` (stereo not given) gave an RP-LC retention time of 916 s.
Turning to `CCN1CCN(c2nc3cc(C(=O)OC)ccc3c(=O)n2-c2ccc(F)c(Cl)c2)CC1`, the RP-LC retention time is 655 s.
To `Cc1ccc(C)c(NC(=O)c2cc(C)nn2-c2ccccc2)c1` belongs 916 s; to `Cc1ccc(C(=O)NCc2ccc(N3CCCC3)nc2)s1`, 601 s.
Regarding `CCSc1nnc(-c2nn(C)c3c2CN(S(=O)(=O)CC)CC3)n1CC`, the RP-LC retention time was found to be 750 s.
To `CC(=O)Nc1ccc(C(=O)NC2CCN(c3cc(-c4ccc(Cl)cc4)[nH]n3)C2)cc1` (stereo not given) belongs 675 s; to `CCOC(=O)c1oc2ccccc2c1NC(=O)c1ccc([N+](=O)[O-])s1`, 1040 s; to `Cc1cccc(CN2CC(=O)N(c3cccc(C)c3)[C@@H]3CS(=O)(=O)C[C@@H]32)c1`, 826 s.
`Cc1ccc(C2=NC3(CCN(C(=O)c4ccc5c(c4)OCO5)CC3)ON2)cc1` registered an RP-LC retention time of 939 s.
The result for `CC(=O)N1CCc2cc(N3CC(C(=O)NCc4ccc5c(c4)OCO5)CC3=O)ccc21` (stereo not given) reads 659 s; that for `COc1ccc(-c2noc(C3CC(=O)N(c4ccc(OC)c(Cl)c4)C3)n2)c(OC)c1` (stereo not given), 1010 s.
`COC(=O)c1nnc2c(-c3ccc(F)cc3)c(C)nn2c1C` had an RP-LC retention time of 855 s.
As to `COc1ccc(N2CCN(C(=O)Cn3cccc3-c3nnc(C4CCC4)o3)CC2)cc1`, the RP-LC retention time is 795 s.
As for `O=S(=O)(c1ccc2c(c1)-c1oncc1CO2)N1CCC2(CC1)OCCO2`, the RP-LC retention time is 827 s.
Consider `CCOC(=O)c1ccc2nc(C(F)(F)F)nc(NCCc3ccc(OC)cc3)c2c1`, for which the RP-LC retention time was determined as 1240 s.
With `Cc1nnsc1C(=O)N1CCc2nc(NC(=O)C3CC3)sc2C1`, the RP-LC retention time stood at 630 s.
As for `CN1C(=O)c2cccn2CC1CNC(=O)c1cc(CN2CCOCC2)on1` (stereo not given), the RP-LC retention time is 548 s.
`COc1cccc(CNC(=O)COc2ccc(NC(=O)C3CC3)cn2)c1OC`: the RP-LC retention time is 591 s.
The compound `CC1CN([C@H]2C[C@@H](N=[N+]=[N-])[C@@H](CO)O2)C(=O)NC1=O` (stereo not given in full) returned an RP-LC retention time of 644 s.
On to `O=C1CC(c2noc(-c3cccc(OC(F)(F)F)c3)n2)CN1c1ccc(F)c(Cl)c1` (stereo not given), for which the RP-LC retention time was determined as 1210 s.
In the case of `COC(=O)c1ccc(CSc2nnc(-c3cn(C)nc3OC)n2C)cc1`, the RP-LC retention time is 641 s.
`N#Cc1cccc(C(=O)Nc2ccc3cn[nH]c3c2)c1` came in with an RP-LC retention time of 659 s.
The result for `COC(=O)C(NC(=O)Nc1cccn2c(C)nnc12)c1ccccc1` (stereo not given) reads 678 s.
In turn, `O=C(Cn1nc2c3cc(-c4ccc(Cl)cc4)nn3ccn2c1=O)Nc1cc(F)ccc1F` displayed an RP-LC retention time of 1020 s.
Compound `Cc1ccc(CNC(=O)c2ccc(-c3cncnc3)nc2)cc1C` returned an RP-LC retention time of 782 s.
For `Cc1cccc(C2(O)C(=O)N(CC(=O)NCc3ccco3)c3ccccc32)c1` (stereo not given), the RP-LC retention time was 630 s.
`Cc1noc(C)c1S(=O)(=O)N1CCc2c(c(-c3nnc(-c4ccccc4)o3)nn2C)C1`: the RP-LC retention time was found to be 880 s.
`CC1CCN(S(=O)(=O)c2ccc3nn(CC(=O)OC(C)(C)C)c(=O)n3c2)CC1`: the RP-LC retention time was 999 s.
As to `CCN1CCN(Cc2nc3cc(NC(=O)C(C)C)ccc3n2C(C)C)CC1`, the RP-LC retention time was found to be 563 s.
